One may read the Ki as the equilibrium dissociation constant of an inhibitor or competing ligand from its target.

This is an account of results in patent publication US20040072315A1, “Integrin-binding chimeras” (priority 2003, published 2004).

Assay [1] concerns platelets in PRP from citrated human blood. The experiment in a line: ADP-induced platelet aggregation in PRP (light transmission). Type of assay: cell-based. As to conditions: 10 μM ADP; for IC50: molar value (MW of Repro assumed 42 Kd, Integrilin 720d), read-out: Inhibition of ADP-induced platelet aggregation. As for the experimental part:
Platelet aggregation was measured by the increase in light transmission as described previously. Briefly, PRP was prepared from citrated human blood, obtained from healthy individuals, by centrifugation at 200×g for 15 mins. Platelet aggregation was induced with 10 μM ADP and measured using a Payton Dual-Aggregometer linked to a chart recorder.
The efficacy of wild-type and five variants of dendroaspin was assessed using ADP-induced platelet aggregation in PRP. The percentage of inhibition of platelet aggregation by these mutant dendroaspins was compared with wild-type dendroaspin and the inhibition of platelet aggregation expressed as IC50 values.

Assay [2] deals with platelets. Description: collagen-induced platelet aggregation. The class given is cell-based, human. As to conditions: for IC50: molar value (MW of Repro assumed 42 Kd, Integrilin 720d), read-out: Inhibition of collagen-induced platelet aggregation. The protocol: Platelet aggregation was measured by the increase in light transmission as described previously. Briefly, PRP was prepared from citrated human blood, obtained from healthy individuals, by centrifugation at 200×g for 15 mins. […]

Assay [3] addresses integrin αIIbβ3 (glycoprotein GP IIb/IIIa) on human platelets (human) (UniProt P08514). Description: cell-based or functional assay.
The subject of assay [4] is factor Xa. The experiment in a line: single-stage chromogenic assay of factor Xa inhibition (S-2765). As to conditions: chromogenic substrate S-2765, 30 min preincubation; for IC50: read-out: Anti-Xa. Type of assay: biochemical. The protocol:
A single-stage chromogenic assay of factor Xa inhibition was used to determine this recombinant molecule. Clotting factor Xa was diluted to […] in 10 mM Hepes (pH 7.5) containing 0.1% bovine serum albumin and 150 mM NaCl (HBSA). Fifty microliters of sample (diluted at vary concentrations into HSBA) were incubated for 30 min at room temperature with 100 μl of factor Xa in a 96-well microtiter plate. Fifty microliters of 1 mM S-2765, a chromogenic substrate for factor Xa, was then added, and the initial rate (mOD per min) of substrate hydrolysis over 5 min was measured at 405/650 nm by using a automated plate reader.

For assay [5], the system named is factor VIIa, kallikrein, trypsin, chymotrypsin, thrombin, urokinase, plasmin, tissue plasminogen activator, elastase, Staphylococcus aureus V8 protease. The conditions noted are these: 300-fold molar excess; cited from earlier work.
The target in assay [6] is factor Xa (Homo sapiens, UniProt P00742). As to conditions: slow, tight-binding inhibitor; cited from earlier work.
For assay [7], the system named is 11 other serine proteases. The conditions noted are these: only protease inhibited among 11 other serine proteases; cited from earlier work.

Where a SMILES comes first, the peptide text is derived from it. Bridges are numbered along the chain shown (N, C = ends). [ ]: non-standard residue; d: D form. hArg = N=C(N)NCCCC[C@H](N)C(=O)O; Mpa = O=C(O)CCS

Sequence of factor Xa (Homo sapiens, UniProt P00742) (P00742 235-488 limits assumed): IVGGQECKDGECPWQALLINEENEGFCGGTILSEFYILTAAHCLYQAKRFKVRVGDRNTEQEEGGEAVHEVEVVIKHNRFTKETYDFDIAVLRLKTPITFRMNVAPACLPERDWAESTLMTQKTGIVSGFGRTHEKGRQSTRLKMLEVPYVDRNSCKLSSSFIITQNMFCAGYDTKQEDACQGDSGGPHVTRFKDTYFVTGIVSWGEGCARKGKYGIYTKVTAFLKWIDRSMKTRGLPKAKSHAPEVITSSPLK
Sequence of factor Xa (Homo sapiens, UniProt P00742) (P00742 41-179 partner limits assumed): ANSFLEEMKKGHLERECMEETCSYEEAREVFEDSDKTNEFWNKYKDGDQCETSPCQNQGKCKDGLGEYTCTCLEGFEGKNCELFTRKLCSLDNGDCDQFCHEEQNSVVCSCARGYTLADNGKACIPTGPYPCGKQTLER

Consider `N=C(N)NCCCC[C@@H]1NC(=O)CCSSC[C@@H](C(N)=O)NC(=O)[C@@H]2CCCN2C(=O)[C@H](Cc2c[nH]c3ccccc23)NC(=O)[C@H](CC(=O)O)NC(=O)CNC1=O` [Integrilin] ([Mpa][hArg]GDWPC-NH2; disulfide 1-7), for which, in assay [1], the “Inhibition of ADP-induced platelet aggregation” value came to 0.2 µg/mL and the IC50 came out at 277 nM. Besides, in assay [2], the “Inhibition of collagen-induced platelet aggregation” value was 0.23 µg/mL and the IC50 was found to be 319 nM.
In assay [3], Dendroaspin (ligand) registered an Inhibition of ADP-induced platelet aggregation of 1.2 µg/mL.
As to “Repro: also known as 7E3, a known inhibitor of integrin-mediated binding; MW assumed 42 Kd”, in assay [1], the “Inhibition of ADP-induced platelet aggregation” value came to 3.2 µg/mL and the IC50 amounted to 76 nM. Moreover, in assay [2], the “Inhibition of collagen-induced platelet aggregation” value is 3.80 µg/mL and the IC50 turned out to be 90 nM.
Turning to “TAP: tick anticoagulant peptide from Ornithodoros moubata, factor Xa inhibitor (YNRLCIKPRDWIDECDSNEGGERAYFRNGKGGCDSFWICPEDHTGADYYSSYRDCFNACI)”, in assay [4], the Anti-Xa lay in the range of 0.02 to 0.07 µg/mL and the IC50 lay within 2.8 to 10 nM. Besides, the “effect on other proteases” value in assay [5] is recorded as “no effect”. Moreover, the Ki in assay [6] was 0.588 nM.

B1: ND9-M3: cleaved ND9 with a fragment of NAP5 linked to dendroaspin, SEQ ID NO:30 (protein)
chain: RSRGCLLLPACVCKDGFYRDTVIGDCVREEECDQHEIIHVGGGGPGPGGGPGGRICYNHLGTKPPTTETCQEDSCYKNIWTFDNIIRRGCGCFTARGDMPGPYCCESDNCNL
modifications: Descriotion of Artificial Sequence: protein fragment ND9-F3
For the molecule B1, in assay [1], the “Inhibition of ADP-induced platelet aggregation” value was determined as 4.2 µg/mL and the IC50 amounted to 260 nM. Also, in assay [4], the Anti-Xa turned out to be 2.3 µg/mL and the IC50 came to 141 nM. Also, in assay [2], the “Inhibition of collagen-induced platelet aggregation” value was determined as 3.90 µg/mL and the IC50 is 240 nM.

B2: NAP5: anticoagulant protein of hookworm Ancylostoma caninum, SEQ ID NO:28 (protein)
chain: KAYPECGENEWLDDCGTQKPCEAKCNEEPPEEEDPICRSRGCLLLPACVCKDGFYRDTVIGDCVREEECDQHEIIH
modifications: Description of Artificial Sequence: NAP portion of ND9
As to B2, the “inhibition of Factor Xa” value in assay [7] is 50%.
